Values joined by “and” are separate entries in the source; they are usually repeats but may differ in a detail not shown here. Equal entries are not always repeated.

The test system of the series is Rattus norvegicus. Particulars: for LD50 / LC50: acute.
[1] abbreviates: short-term, duration: 28 days, oral, gavage, M, Sprague-Dawley.
The mark [2] stands for this setting: subchronic, duration: 13 weeks, oral, gavage, Sprague-Dawley.
Where [3] appears, read: short-term, duration: 28 days, oral, gavage, Wistar.
The mark [4] stands for this setting: reproduction developmental, duration: 83 days, oral, gavage, Sprague-Dawley.

With `CCCCN(CCCC)c1ccc(C(=O)c2ccccc2C(=O)O)c(O)c1` [2-[4-(Dibutylamino)-2-hydroxybenzoyl]benzoic acid], the LD50 is, setting by setting: (dermal, Sprague-Dawley) more than 2000 mg/kg; (oral, gavage, Sprague-Dawley) more than 5000 mg/kg. The compound further had an LOAEL (reproduction developmental, duration: 21 weeks, oral, gavage, M, Sprague-Dawley) of 250 mg/kg-day; an LOAEL (reproduction developmental, duration: 21 weeks, oral, gavage, Sprague-Dawley, generation: F1) of 250 mg/kg-day; an LOAEL under setting [1] of 1000 mg/kg-day; an LOAEL under setting [2] of 250 mg/kg-day. The NOAEL under setting [2] was 50 mg/kg-day.
Compound `CCCCCCC(=O)OCCOCCOCCOCCOC(=O)CCCCCC` [Tetraethylene glycol diheptanoate] returned an LD50 (oral, gavage, ChR:CD) of more than 25000 mg/kg; an LD50 (oral, gavage, ChRCD) of more than 25000 mg/kg; an LD50 (oral, gavage, Crl:CD(SD)) of more than 24500 mg/kg; an LD50 (oral, gavage, Wistar) of more than 2000 mg/kg. The LOAEL (short-term, duration: 4 weeks, inhalation, Wistar) turned out to be 1.1 mg/L. Moreover, the NOAEL under setting [3] was determined as 1000 mg/kg-day.
`CCCCCCCCCCCCCOC(=O)CCSCCC(=O)OCCCCCCCCCCCCC` [Di(tridecyl) thiodipropionate] gave an LD50 (oral) of more than 2000 mg/kg.
Take `COc1cc(NC(=O)C(N=Nc2ccc(-c3ccc(N=NC(C(C)=O)C(=O)Nc4cc(OC)c(Cl)cc4OC)c(Cl)c3)cc2Cl)C(C)=O)c(OC)cc1Cl` (configuration not stated) [C.I. Pigment Yellow 83]: the LD50 (oral, gavage) was more than 1750 mg/kg. The NOAEL (chronic, duration: 104 weeks, oral, gavage, Sprague-Dawley) turned out to be 630 mg/kg-day.
Regarding `N#Cc1nc(Cl)c(Cl)c(Cl)c1Cl` [3,4,5,6-Tetrachloropyridine-2-carbonitrile], for the setting “oral, gavage”, the LD50 is ≥ 1000 mg/kg and ≤ 2000 mg/kg.
For `CCC(C)(N)C#N` (configuration not stated) [2-Amino-2-methyl-butyronitrile], the LC50 (inhalation, Crl:CD(SD) BR) was 430 mg/m3 and 446 mg/m3 and 417 mg/m3. Also, the LD50 (oral, gavage, Sprague-Dawley) turned out to be 74 mg/kg.
Where the note is “oral, gavage”, `CC(C)(c1ccccc1)c1ccc(Nc2ccc(C(C)(C)c3ccccc3)cc2)cc1` showed an LC50 of more than 10000 mg/kg.
Compound `CC12CCCCC1C(=O)OC2=O` (configuration not stated) [Methylhexahydrophthalic anhydride] came in with an LD50 (oral) of 3300 mg/kg.
`CCCCCCCCCCc1cc(Oc2ccc(S(=O)(=O)O)cc2)ccc1S(=O)(=O)O` [Decyl(sulfophenoxy)benzenesulfonic acid]: the LD50 runs as follows: (oral, gavage, Fischer 344) ≥ 1000 mg/kg and ≤ 2000 mg/kg; (oral, gavage, Sprague-Dawley) 3010 mg/kg.
Consider `CC(C)(C)c1cccc(C(C)(C)C)c1O` [2,6-Di-tert-butylphenol], for which the LD50 (oral, gavage) stood at 6290 mg/kg and the LD50 (oral, gavage, Sprague-Dawley) is more than 5000 mg/kg. Also, the NOAEL by setting is: (developmental, oral, gavage, Wistar) more than 750 mg/kg-day; (reproduction developmental, oral, gavage, Wistar) 150 mg/kg-day; under setting [3], 15 mg/kg-day.
Consider `CC(C)(N)C#N` [2-Amino-2-methylpropionitrile], for which the LD50 (oral, Sprague-Dawley) is ≥ 10 mg/kg and ≤ 30 mg/kg. Further, under “short-term, duration: 2 weeks, inhalation, M, Sprague-Dawley”, the NOAEL was 75.7 mg/m3.
As for `CCCCCCCCC(=O)Oc1ccccc1S(=O)(=O)[O-].[Na+]` [Sodium (nonanoyloxy)benzenesulfonate], under setting [4], the LOAEC was found to be 100 mg/kg-day and the NOAEL was 1000 mg/kg-day.
On to `Cc1ccc(C)c(O)c1C` [2,3,6-Trimethylphenol], for which, under “oral, gavage”, the LD50 was more than 2000 mg/kg.
As to `OCCCO` [1,3-Propanediol], the LD50 (oral, gavage, Wistar) is 15.8 mg/kg.
`C=C(C)CC` [2-Methylbutene] yielded an LC50 (inhalation, Wistar) of more than 61000 ppm. Moreover, the NOAEL (reproduction developmental, inhalation, Sprague-Dawley) amounted to 7000 ppm.
In the case of `CCCCCCCCCCOC1CCS(=O)(=O)C1` (configuration not stated) [Thiophene, 3-(decyloxy)tetrahydro-, 1,1-dioxide], under setting [1], the NOAEL was 100 mg/kg-day.

The values are drawn from EPA's ToxValDB 9.5.
